For one data set, the system named is HeLa. The experiment in a line: Cytotoxicity against human HeLa cells. Format: functional.
Another data set deals with K562. Put plainly: Antiproliferative activity against human K562 cells. Format: functional.
The subject of another data set is MCF7. The experiment in a line: Antiproliferative activity against estrogen receptor expressing human MCF7 cells. Format: functional.
The nature of data set [1]: Antiproliferative activity against estrogen receptor negative human MDA-MB-436 cells.
The nature of data set [2]: Antiproliferative activity against HUVEC cells. Format: cell-based. As to conditions: human.

Molecules are shown by their SMILES.

The CC50 is the concentration giving 50% cytotoxicity. Read a low CC50 as greater toxicity to the cells. Broadly, the GI50 is the concentration that inhibits growth by half. A higher GI50 goes with lower sensitivity of the cells. For `O=c1c(-c2cc(O)cc(O)c2)coc2cc(O)ccc12`, in the data set with HeLa, the CC50 was 160 µM. In addition, the GI50 with K562 is over 185 µM; in the data set with MCF7 it was 73 µM; in data set [1], 169 µM; in data set [2] it was over 185 µM.

In the data set on HeLa, `COc1c(O)ccc(-c2coc3cc(O)cc(O)c3c2=O)c1O` returned a CC50 of 77 µM. Further, the GI50 in the data set with K562 was determined as 48 µM; in the data set with MCF7, 15 µM; in data set [1] it was 32 µM; in data set [2], 64 µM.

Take `COc1cc(-c2coc3cc(O)ccc3c2=O)ccc1O`: the figures for the GI50 (in the data set with MCF7; in data set [1]) were 42 µM and 75 µM, respectively.

For `O=c1c2c(O)cc(O)cc2occ1[C@]1(O)CC[C@@H](O)CC1`, the GI50 in the data set with MCF7 was determined as 75 µM; in data set [1], 147 µM.

Regarding `O=c1c(-c2cc(O)cc(O)c2)coc2cc(O)cc(O)c12`, the CC50 in the data set with HeLa stood at 134 µM. In addition, the concentration for 50% growth inhibition (GI50) with K562 is 75 µM; with MCF7 it was 65 µM; in data set [1], over 174 µM; in data set [2], 133 µM.

Regarding `O=c1c(-c2ccc(O)cc2)coc2cc(O)ccc12` [DAIDZEIN], the 50% growth inhibitory concentration (GI50) in the data set on MCF7 was 122 µM; in data set [1] it was over 196 µM.

Consider `O=c1c([C@]2(O)CC[C@@H](O)[C@H](O)C2)coc2cc(O)cc(O)c12`, for which the CC50 in the data set on HeLa is over 162 µM. The 50% growth inhibitory concentration (GI50) is over 162 µM in the data set with K562, 84 µM in the data set with MCF7, 138 µM in data set [1] and over 162 µM in data set [2].

As to `COc1c(O)ccc(-c2coc3cc(O)ccc3c2=O)c1O`, the GI50 came out at 37 µM in the data set on MCF7 and 68 µM in data set [1].

Take `O=c1c(C2=CCCC(O)C2O)coc2cc(O)cc(O)c12` (stereo not given): in the data set on HeLa, the midpoint of cytotoxicity, the CC50, lay at 81 µM. The GI50 was over 172 µM in the data set on K562, 6 µM with MCF7, 17 µM in data set [1] and 17 µM in data set [2].

In the case of `O=c1c(-c2ccc(O)cc2)coc2cc(O)cc(O)c12` [GENISTEIN], the GI50 turned out to be 10 µM with MCF7 and 17 µM in data set [1].
